Results on two compounds are retold here after patent US8952013B2, “Controlled release sterile injectable aripiprazole formulation and method” (Otsuka Pharmaceutical Co., Ltd., priority 2003, dated 2015).

The aqueous solubility is how much of the substance goes into solution per volume.

Each structure is given as a SMILES string. Bounds are passed on as bounds.

The nature of data set [1]: hygroscopicity: water content after storage in a dessicator. It is filed as physicochemical. Particulars: after 24 hours inside a dessicator at 60° C. and a humidity of 100%. How it is done: Aripiprazole Anhydrous Crystals B employed in the present invention have low hygroscopicity. For example, Aripiprazole Anhydrous Crystals B employed in the present invention maintain a water content of 0.4% or less after 24 hours inside a dessicator set at a temperature of 60° C. and a humidity of 100%.
Well-known methods of measuring water content can be used as long as they are methods commonly used for measuring the water content of crystals. For example, a method such as the Karl Fischer method can be used.

For data set [2] the following is noted: at room temperature; cited from earlier work.

Take `O=C1CCc2ccc(OCCCCN3CCN(c4cccc(Cl)c4Cl)CC3)cc2N1` [Aripiprazole Anhydrous Crystals B, Aripiprazole]: the water content in data set [1] is no more than 0.4%.

Consider `O=C1CCc2ccc(OCCCCN3CCN(c4cccc(Cl)c4Cl)CC3)cc2N1` [Aripiprazole], for which, in data set [2], the aqueous solubility is less than 1 µg/mL.
